Experimental data reported in patent US12622901B2, “Compounds for tau protein degradation” (Dana-Farber Cancer Institute, Inc., priority 2017, dated 2026).
Entries after “also recorded” stand apart in the source; their conditions may differ. Like-named read-outs stand apart in the source and are kept apart here.

What was measured:
[1] = molecular target: T1, tau protein (Homo sapiens, UniProt P10636, A469T); assay: Tau degradation assay (western blot) in human tau-A152T neurons; assay type: cell-based
T1 construct: cultured human differentiated frontotemporal lobar dementia (FTD) neurons; endogenous in cells; host or cells: human differentiated FTD neurons, tau-A152T (line 19-5-RC6)
Protocol: Example compounds 1-12 were evaluated for their ability to degrade tau protein in cultured human differentiated frontotemporal lobar dementia (FTD) neurons. […] For each condition, 1 well of differentiated neuronal cells (6 well-plate) was washed and collected in PBS, pelleted and lysed in RIPA buffer (Boston Bio-Products) with 2% SDS (Sigma), protease inhibitors (Roche Complete Mini tablets), and phosphatase inhibitors (Sigma), followed by sonication in a water sonicator (Bransonic Ultrasonic Baths, Thomas Scientific) for 5 min, and centrifugation at 20,000 g for 15 min. Supernatants were transferred to new tubes, total protein concentration was quantified with the Pierce BCA Protein Assay Kit (Thermo), and SDS-PAGE gels were loaded with 10 μg total protein per well (pre-boiled samples). Western blots were performed with the Novex NuPAGE SDS-PAGE Gel System (Invitrogen). All samples were resolved in 7% Tris-Acetate gels with Tris-Acetate running buffer (Invitrogen). Blots were probed with antibodies against total tau (TAU5) and phosphosrylated tau (Ser396), along with β-actin as a loading control; followed by corresponding HRP-linked secondary antibodies (Cell Signaling Technology), and SuperSignal West Pico Chemiluminescent Substrate (Thermo) detection. Membranes were exposed to autoradiographic film (LabScientific) and films were scanned using an Epson Perfection V800 Photo Scanner. Protein band intensities (pixel mean intensity) were quantified using Adobe Photoshop CS5 Histogram function. Whereas the vehicle alone (DMSO) had no effect on tau, varying degrading activity was observed amongst the compounds, however with overall similar relative levels of degrading activity between tau-A152T neurons and tau-P301L neurons. Compounds were added at the doses indicated of either 0.1, 1, 5, or 10 μM.
(§1) Four-week differentiated neurons, both non-mutant (8330-8) and tau-A152T (19-5-RC6) were employed. The neurons were treated with T807 for 24 hours (at 10 μg/mL=59.4 μM). One well of differentiated neuronal cells (6 well-plate, treated or untreated) was washed and collected in PBS, pelleted and directly lysed in 200 μL of Sample Buffer (New England Biolabs) supplemented with 3X DTT, boiled for 15 min and 10 μL of each lysate was run by SDS-PAGE in a 4-12% Bis-Tris Gel, with MOPS running buffer. Blots were probed with antibodies to total tau (DA9) and phosphorylated tau (Ser396, PHF1, AT8) along with GAPDH as a loading control.
Example compounds 2-5 were reevaluated for their ability to degrade tau protein in human FTD neurons as well as evaluate their effect on E3 ubiquitin ligases CRBN, VHL, and CHIP (FIG. 4A-E). For each control and treatment, 1 well of differentiated neuronal cells (6 well-plate) was washed and collected in PBS, pelleted and lysed in RIPA buffer (Boston Bio-Products) with 2% SDS (Sigma), protease inhibitors (Roche Complete Mini tablets), and phosphatase inhibitors (Sigma), followed by sonication in a water sonicator (Bransonic Ultrasonic Baths, Thomas Scientific) for 5 min, and centrifugation at 20,000 g for 15 min. Supernatants were transferred to new tubes, total protein concentration was quantified with the Pierce BCA Protein Assay Kit (Thermo), and SDS-PAGE gels were loaded with 10 μg total protein per well (pre-boiled samples). […] Protein band intensities (pixel mean intensity) were quantified using Adobe Photoshop CS5 Histogram function. […]

[2] = molecular target: T2, tau protein (Homo sapiens, UniProt P10636, P618L); assay: Tau degradation assay (western blot) in human tau-P301L neurons; assay type: cell-based
T2 construct: cultured human differentiated frontotemporal lobar dementia (FTD) neurons; endogenous in cells; host or cells: human differentiated FTD neurons, tau-P301L
Protocol: Example compounds 1-12 were evaluated for their ability to degrade tau protein in cultured human differentiated frontotemporal lobar dementia (FTD) neurons. […] For each condition, 1 well of differentiated neuronal cells (6 well-plate) was washed and collected in PBS, pelleted and lysed in RIPA buffer (Boston Bio-Products) with 2% SDS (Sigma), protease inhibitors (Roche Complete Mini tablets), and phosphatase inhibitors (Sigma), followed by sonication in a water sonicator (Bransonic Ultrasonic Baths, Thomas Scientific) for 5 min, and centrifugation at 20,000 g for 15 min. Supernatants were transferred to new tubes, total protein concentration was quantified with the Pierce BCA Protein Assay Kit (Thermo), and SDS-PAGE gels were loaded with 10 μg total protein per well (pre-boiled samples). Western blots were performed with the Novex NuPAGE SDS-PAGE Gel System (Invitrogen). […] Protein band intensities (pixel mean intensity) were quantified using Adobe Photoshop CS5 Histogram function. […]
Example compounds 2-5 were reevaluated for their ability to degrade tau protein in human FTD neurons as well as evaluate their effect on E3 ubiquitin ligases CRBN, VHL, and CHIP (FIG. 4A-E). […] Supernatants were transferred to new tubes, total protein concentration was quantified with the Pierce BCA Protein Assay Kit (Thermo), and SDS-PAGE gels were loaded with 10 μg total protein per well (pre-boiled samples). […]

[3] = molecular target: T3, tau protein (Homo sapiens, UniProt P10636); assay: Tau degradation assay (western blot) in non-mutant control human neurons; assay type: cell-based
T3 construct: Four-week differentiated neurons, both non-mutant (8330-8) and tau-A152T (19-5-RC6) were employed; endogenous in cells; host or cells: human differentiated non-mutant control neurons (8330-8, 8330-8-RC1, CTR2-L17-RC2)
Protocol: as §1
Example compounds 2-5 were again evaluated in tau degradation assays in non-mutant control, A152T and P301L neurons (6-week differentiated). Non-mutant neurons were employed as a negative control since derivatives of T807 should not recognize non-disease states of tau based upon how the series was identified, using selection for binding to pathological forms of tau in post-mortem brain lysates and tissue slices. […] Supernatants were transferred to new tubes, total protein concentration was quantified with the Pierce BCA Protein Assay Kit (Thermo), and SDS-PAGE gels were loaded with 10 μg total protein per well (pre-boiled samples). […] Protein band intensities (pixel mean intensity) were quantified using Adobe Photoshop CS5 Histogram function. […]

[4] = system: A152T neurons
[5] = system: A152T neurons; assay: Neuronal viability / rescue of stress vulnerability to β-amyloid (1-42) peptide; conditions: A152T neurons differentiated 8 weeks; compound alone; FIG. 7

T3 sequence (P10636 1-441 isoform P10636-8): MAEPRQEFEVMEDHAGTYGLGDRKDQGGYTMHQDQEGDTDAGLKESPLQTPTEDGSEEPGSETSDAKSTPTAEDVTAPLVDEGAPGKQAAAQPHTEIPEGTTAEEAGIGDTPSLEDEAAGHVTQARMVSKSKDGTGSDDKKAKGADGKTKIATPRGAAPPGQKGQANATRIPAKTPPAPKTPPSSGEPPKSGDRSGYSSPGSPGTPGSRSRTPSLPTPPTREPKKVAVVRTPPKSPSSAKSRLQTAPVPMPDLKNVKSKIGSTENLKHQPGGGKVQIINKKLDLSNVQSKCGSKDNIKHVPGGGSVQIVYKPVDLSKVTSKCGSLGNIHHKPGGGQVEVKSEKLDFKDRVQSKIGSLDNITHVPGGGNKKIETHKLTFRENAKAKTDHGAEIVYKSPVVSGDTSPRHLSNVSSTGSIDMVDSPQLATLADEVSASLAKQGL
T1 sequence (P10636 1-441 isoform P10636-8 A152T): as the sequence (P10636 1-441 isoform P10636-8) above, with A152T counted along it
T2 sequence (P10636 1-441 isoform P10636-8 P301L): as the sequence (P10636 1-441 isoform P10636-8) above, with P301L counted along it

Fc1ccc(-c2ccc3c(c2)[nH]c2ccncc23)cn1 [Compound T807]
effect on total tau and phospho-tau (S396) levels ([1]; A152T neurons, 6-week differentiated, 1 μM, FIG. 5): no effect
effect on total tau and phosphorylated tau levels ([1]; tau-A152T (19-5-RC6) neurons, four-week differentiated, 24 h at 10 μg/mL=59.4 μM, FIG. 3): No significant tau lowering activity; also recorded: no effect on tau levels and did not degrade tau
effect on total tau and phospho-tau (S396) levels ([2]; P301L neurons, 6-week differentiated, 1 μM, FIG. 5): no effect
effect on total tau and phosphorylated tau levels ([3]; non-mutant (8330-8) neurons, four-week differentiated, 24 h at 10 μg/mL=59.4 μM, FIG. 3): No significant tau lowering activity; also recorded: no effect on tau levels and did not degrade tau
effect on total tau and phospho-tau (S396) levels ([3]; non-mutant control neurons, 6-week differentiated, 1 μM, FIG. 5): no effect

N-(17-(2-((2-(2,6-dioxopiperidin-3-yl)-1,3-dioxoisoindolin-4-yl)amino)-3,6,9,12,15-pentaoxaheptadecyl)-3-(5H-pyrido[4,3-b]indol-7-yl)propanamide [Compound 5]
effect on neuronal viability [4]: no effect on neuronal viability

O=C(CCc1ccc2c(c1)[nH]c1ccncc12)NCCOCCNc1cccc2c1C(=O)N(C1CCC(=O)NC1=O)C2=O (stereo not shown) [Compound 2, N-(2-(2-((2-(2,6-dioxopiperidin-3-yl)-1,3-dioxoisoindolin-4-yl)amino)ethoxy)ethyl)-3-(5H-pyrido[4,3-b]indol-7-yl)propanamide]
dose-dependency of effect on tau ([1]; 6-week differentiated A152T neurons, treatment for 24 hours, FIG. 6): dose dependent effect on tau
effect on neuronal viability [5]: no effect on neuronal viability

Nc1cccc2c1CN(C1CCC(=O)NC1=O)C2=O (stereo not shown) [Lenalidomide]
effect on total tau and hyperphosphorylated tau levels ([1]; tau-A152T neurons, 5-week differentiated, 24 h treatment, 0.1, 1, 5 or 10 μM (lenalidomide 1 or 10 μM), TAU5, pSer396): no effect on tau levels
effect on total tau and hyperphosphorylated tau levels ([2]; tau-P301L neurons, 8-week differentiated, 24 h treatment, 0.1, 1, 5 or 10 μM (lenalidomide 1 or 10 μM), TAU5, pSer396): no effect on tau levels
